The record followed here is US10179767B2 (GENENTECH, INC., priority 2015, dated 2019).

The target in this assay is T1, hNav1.7 (Homo sapiens, UniProt Q15858).
T1 construct: expressed in transfected cells
T1 sequence (Q15858 whole entry): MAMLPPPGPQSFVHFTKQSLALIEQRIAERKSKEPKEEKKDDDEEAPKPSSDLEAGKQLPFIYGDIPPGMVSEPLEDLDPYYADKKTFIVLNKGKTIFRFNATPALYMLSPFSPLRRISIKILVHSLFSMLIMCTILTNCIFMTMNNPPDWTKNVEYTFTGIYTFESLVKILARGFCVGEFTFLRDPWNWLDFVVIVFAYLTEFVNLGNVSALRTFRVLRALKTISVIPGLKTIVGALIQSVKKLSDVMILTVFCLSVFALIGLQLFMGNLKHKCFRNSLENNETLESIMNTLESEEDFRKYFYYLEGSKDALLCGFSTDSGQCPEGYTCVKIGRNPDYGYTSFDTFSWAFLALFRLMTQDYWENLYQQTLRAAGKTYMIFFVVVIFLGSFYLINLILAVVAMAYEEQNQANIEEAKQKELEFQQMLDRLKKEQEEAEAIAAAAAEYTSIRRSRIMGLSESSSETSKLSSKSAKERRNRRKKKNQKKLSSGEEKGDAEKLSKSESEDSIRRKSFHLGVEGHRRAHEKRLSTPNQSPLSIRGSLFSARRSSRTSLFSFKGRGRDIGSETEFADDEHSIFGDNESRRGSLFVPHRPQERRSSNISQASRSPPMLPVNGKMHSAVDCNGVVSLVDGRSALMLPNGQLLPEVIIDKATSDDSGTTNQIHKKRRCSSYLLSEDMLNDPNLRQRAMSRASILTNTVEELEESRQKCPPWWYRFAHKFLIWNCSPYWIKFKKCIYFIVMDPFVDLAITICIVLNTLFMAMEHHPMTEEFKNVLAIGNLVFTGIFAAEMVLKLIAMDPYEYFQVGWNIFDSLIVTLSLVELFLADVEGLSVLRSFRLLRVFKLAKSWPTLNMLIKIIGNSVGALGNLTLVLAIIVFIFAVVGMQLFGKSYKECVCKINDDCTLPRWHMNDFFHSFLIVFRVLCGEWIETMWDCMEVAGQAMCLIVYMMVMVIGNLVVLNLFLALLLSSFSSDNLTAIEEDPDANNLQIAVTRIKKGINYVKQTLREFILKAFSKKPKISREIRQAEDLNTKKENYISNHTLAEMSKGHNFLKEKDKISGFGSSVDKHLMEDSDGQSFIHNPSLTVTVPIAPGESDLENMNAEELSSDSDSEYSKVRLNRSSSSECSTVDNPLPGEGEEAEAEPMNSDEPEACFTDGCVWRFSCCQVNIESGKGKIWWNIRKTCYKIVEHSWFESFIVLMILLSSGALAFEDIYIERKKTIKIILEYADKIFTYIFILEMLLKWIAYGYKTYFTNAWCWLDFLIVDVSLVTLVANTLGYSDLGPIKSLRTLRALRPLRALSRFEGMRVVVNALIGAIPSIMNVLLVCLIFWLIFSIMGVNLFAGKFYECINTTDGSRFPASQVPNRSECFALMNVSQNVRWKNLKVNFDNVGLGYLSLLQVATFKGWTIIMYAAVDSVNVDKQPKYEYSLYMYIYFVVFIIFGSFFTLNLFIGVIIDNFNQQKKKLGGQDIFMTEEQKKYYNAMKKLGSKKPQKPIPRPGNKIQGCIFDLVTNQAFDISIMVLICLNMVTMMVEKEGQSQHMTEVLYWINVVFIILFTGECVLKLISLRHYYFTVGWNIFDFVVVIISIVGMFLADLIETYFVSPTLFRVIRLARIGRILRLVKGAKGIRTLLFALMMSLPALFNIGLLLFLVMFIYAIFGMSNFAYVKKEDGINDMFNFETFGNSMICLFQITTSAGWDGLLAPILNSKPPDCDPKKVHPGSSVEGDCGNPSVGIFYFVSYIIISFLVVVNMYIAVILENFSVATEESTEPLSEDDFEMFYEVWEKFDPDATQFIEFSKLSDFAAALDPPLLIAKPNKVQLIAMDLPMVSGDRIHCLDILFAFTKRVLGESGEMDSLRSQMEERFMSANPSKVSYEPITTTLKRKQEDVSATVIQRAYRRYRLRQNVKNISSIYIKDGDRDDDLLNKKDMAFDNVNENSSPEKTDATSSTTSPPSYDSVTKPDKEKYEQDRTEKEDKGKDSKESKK
T1 sequence (Q07699 19-218 partner): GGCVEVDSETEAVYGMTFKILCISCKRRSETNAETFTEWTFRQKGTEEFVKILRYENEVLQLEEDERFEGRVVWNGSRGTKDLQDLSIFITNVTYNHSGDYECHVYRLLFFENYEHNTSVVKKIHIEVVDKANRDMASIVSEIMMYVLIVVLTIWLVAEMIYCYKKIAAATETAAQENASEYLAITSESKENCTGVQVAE
Description: Tritiated sulfonamide binding to membranes from cells expressing hNav1.7 and the β1 subunit (Nav 1.7 ligand binding assay, competitive). The settings on record: competition with 100 pM [3H]compound, room temperature, 18 h. The method, then: Tritiated Sulfonamide Binding to Membranes Isolated from Cells that Heterologously Express hNav1.7 and the β1 Subunit
Preparation of membranes containing recombinantly expressed sodium channels: Frozen recombinant cell pellets were thawed on ice and diluted to 4 times the cell pellet weight with ice cold 50 mM Tris HCl, pH 7.4 buffer. The cell suspensions were homogenized on ice using a motorized glass dounce homogeniser. Homogenates were further diluted 8.4 times with ice cold 50 mM Tris HCl, pH 7.4 buffer and then centrifuged at 200×g at 4° C. for 15 min. The supernatants were collected and centrifuged at 10000×g at 4° C. for 50 min. The pellets were then re-suspended in 100 mM NaCl, 20 mM Tris HCl, pH 7.4 buffer containing 1% v/v protease inhibitors (Calbiochem) and re-homogenized on ice. The homogenized membranes were then processed through a syringe equipped with a 26 gauge needle. Protein concentrations were determined by Bradford Assay and the membranes were stored at −80° C.
Radioligand Binding Studies:
Saturation experiments. A competitive NaV1.7 inhibitor having a methyl group was tritiated. Three tritiums were incorporated in place of methyl hydrogens to generate [^3H]compound. Binding of this radioligand was preformed in 5 mL borosilicate glass test tubes at room temperature. Binding was initiated by adding membranes to increasing concentrations of [^3H]compound in 100 mM NaCl, 20 mM Tris HCl, pH 7.4 buffer containing 0.01% w/v bovine serum albumin (BSA) for 18 h. Non-specific binding was determined in the presence of 1 μM unlabelled compound. After 18 h, the reactants were filtered through GF/C glass fiber filters presoaked in 0.5% w/v polyethylene imine Filters were washed with 15 mL ice cold 100 mM NaCl, 20 mM Tris HCl, pH7.4 buffer containing 0.25% BSA to separate bound from free ligand. [^3H]compound bound to filters was quantified by liquid scintillation counting.
Competitive Binding Experiments:
Binding reactions were preformed in 96-well polypropylene plates at room temperature for 18 h. In 360 μL, membranes were incubated with 100 pM [^3H]compound and increasing concentrations of Test Compound. Non-specific binding was defined in the presence of 1 μM unlabelled compound. Reactions were transferred and filtered through 96-well glass fiber/C filter plates presoaked with 0.5% polyethylene imine. The filtered reactions were washed 5 times with 200 μL ice cold buffer containing 0.25% BSA. Bound radioactivity was determined by liquid scintillation counting. Data Analysis: For saturation experiments, non-specific binding was subtracted from total binding to provide specific binding and these values were recalculated in terms of pmol ligand bound per mg protein. Saturation curves were constructed and dissociation constants were calculated using the single site ligand binding model: Beq=(Bmax*X)/(X+Kd), where Beq is the amount of ligand bound at equilibrium, Bmax is the maximum receptor density, Kd is the dissociation constant for the ligand, and X is the free ligand concentration. For competition studies percent inhibition was determined and IC50 values were calculated using a 4 parameter logistic model (% inhibition=(A+((B−A)/(1+((x/C)⨣D)))) using XLfit, where A and B are the maximal and minimum inhibition respectively, C is the IC50 concentration and D is the (Hill) slope.
As a reminder, the IC50 is the concentration at which inhibition is half-maximal. Read a low IC50 as greater potency in that assay. In turn, `COc1c(Cl)cc(Cl)cc1CN1CCC(COc2cc(F)c(C(=O)NS(C)(=O)=O)cc2C2CC2)CC1` [Example 14, 5-Cyclopropyl-4-((1-(3,5-dichloro-2-methoxybenzyl)piperidin-4-yl)methoxy)-2-fluoro-N-(methylsulfonyl)benzamide] displayed an IC50 of 6.5 nM.
The same measure for `N#Cc1c(Cl)cc(Cl)cc1CN1CCC(COc2cc(F)c(C(=O)NS(=O)(=O)C3CC3)cc2C2CC2)CC1` [Example 17, 5-Cyclopropyl-N-(cyclopropylsulfonyl)-4-((1-(3,5-dichloro-2-cyanobenzyl)piperidin-4-yl)methoxy)-2-fluorobenzamide]: 5.9 nM; for `CS(=O)(=O)NC(=O)c1cc(C2CC2)c(OCC2(F)CCN(Cc3ccc(Cl)cc3Cl)CC2)cc1F` [Example 20, 5-Cyclopropyl-4-((1-(2,4-dichlorobenzyl)-4-fluoropiperidin-4-yl)methoxy)-2-fluoro-N-(methylsulfonyl)benzamide]: 3.5 nM.
`COCC(c1cc(Cl)cc(Cl)c1F)N1CCC(COc2cc(F)c(C(=O)NS(C)(=O)=O)cc2C2CC2)CC1` (centres unmarked) [Example 21, 5-cyclopropyl-4-((1-(1-(3,5-dichloro-2-fluorophenyl)-2-methoxyethyl)piperidin-4-yl)methoxy)-2-fluoro-N-(methylsulfonyl)benzamide] registered a half-maximal inhibitory concentration (IC50) of 4.4 nM.
Under `CS(=O)(=O)NC(=O)c1cc(C2CC2)c(OCC2CCN(Cc3cc(Cl)cc(OC4CC4)c3)CC2)cc1F` [Example 28, 4-((1-(3-Chloro-5-cyclopropoxybenzyl)piperidin-4-yl)methoxy)-5-cyclopropyl-2-fluoro-N-(methylsulfonyl)benzamide] stands 6 nM.
`CS(=O)(=O)NC(=O)c1cc(C2CC2)c(OCC2(F)CCN(Cc3ccc(F)cc3Cl)CC2)cc1F` [Example 29, 4-((1-(2-Chloro-4-fluorobenzyl)-4-fluoropiperidin-4-yl)methoxy)-5-cyclopropyl-2-fluoro-N-(methylsulfonyl)benzamide]: the IC50 was determined as 4.2 nM.
With `CS(=O)(=O)NC(=O)c1cc(C2CC2)c(OCC2(F)CCN(Cc3cc(F)cc(Cl)c3)CC2)cc1F` [Example 30, 4-((1-(3-Chloro-5-fluorobenzyl)-4-fluoropiperidin-4-yl)methoxy)-5-cyclopropyl-2-fluoro-N-(methylsulfonyl)benzamide], the IC50 was determined as 4.9 nM.
In turn, `CS(=O)(=O)NC(=O)c1cc(C2CC2)c(OCC2(F)CCN(Cc3ccc(F)c(Cl)c3)CC2)cc1F` [Example 31, 4-((1-(3-Chloro-4-fluorobenzyl)-4-fluoropiperidin-4-yl)methoxy)-5-cyclopropyl-2-fluoro-N-(methylsulfonyl)benzamide] had a half-maximal inhibitory concentration (IC50) of 5.3 nM.
Compound `O=C(NS(=O)(=O)N1CCC1)c1cc(C2CC2)c(O[C@H]2CCCN(Cc3ccc(F)cc3Cl)C2)cc1F` [Example 41, (S)—N-(azetidin-1-ylsulfonyl)-4-((1-(2-chloro-4-fluorobenzyl)piperidin-3-yl)oxy)-5-cyclopropyl-2-fluorobenzamide] returned an IC50 of 140 nM.
Turning to `CS(=O)(=O)NC(=O)c1cc(C2CC2)c(OCC2(F)CCN(Cc3ncc(C(F)(F)F)cc3Cl)CC2)cc1F` [Example 42, 4-((1-((3-chloro-5-(trifluoromethyl)pyridin-2-yl)methyl)-4-fluoropiperidin-4-yl)methoxy)-5-cyclopropyl-2-fluoro-N-(methylsulfonyl)benzamide], the 50% inhibitory concentration (IC50) worked out at 19 nM.
In turn, `CS(=O)(=O)NC(=O)c1cc(C2CC2)c(OCC2(F)CCN(Cc3cc(C(F)(F)F)cc(C4CC4)n3)CC2)cc1F` [Example 43, 5-cyclopropyl-4-((1-((6-cyclopropyl-4-(trifluoromethyl)pyridin-2-yl)methyl)-4-fluoropiperidin-4-yl)methoxy)-2-fluoro-N-(methylsulfonyl)benzamide] yielded an IC50 of 9.8 nM.
`CC(c1ncc(Cl)cc1Cl)N1CCC(COc2cc(F)c(C(=O)NS(C)(=O)=O)cc2C2CC2)CC1` (centres unmarked) [Example 44, 5-cyclopropyl-4-((1-(1-(3,5-dichloropyridin-2-yl)ethyl)piperidin-4-yl)methoxy)-2-fluoro-N-(methylsulfonyl)benzamide]: the IC50 worked out at 18 nM.
As to `CC(c1cc(Cl)cc(C2CC2)n1)N1CCC(COc2cc(F)c(C(=O)NS(C)(=O)=O)cc2C2CC2)CC1` (centres unmarked) [Example 46, 4-((1-(1-(4-chloro-6-cyclopropylpyridin-2-yl)ethyl)piperidin-4-yl)methoxy)-5-cyclopropyl-2-fluoro-N-(methylsulfonyl)benzamide], the IC50 was determined as 12 nM.
Take `CC(c1cc(Cl)cc(C2CC2)n1)N1CCC(COc2cc(F)c(C(=O)NS(=O)(=O)C3CC3)cc2C2CC2)CC1` (centres unmarked) [Example 47, 4-((1-(1-(4-chloro-6-cyclopropylpyridin-2-yl)ethyl)piperidin-4-yl)methoxy)-5-cyclopropyl-N-(cyclopropylsulfonyl)-2-fluorobenzamide]: the half-inhibitory concentration (IC50) turned out to be 9.9 nM.
`CC(c1cc(Cl)cc(Cl)c1)N1CCC2(CC1)CC(Oc1cc(F)c(C(=O)NS(C)(=O)=O)cc1C1CC1)C2` (centres unmarked) [Example 48, 5-cyclopropyl-4-((7-(1-(3,5-dichlorophenyl)ethyl)-7-azaspiro[3.5]nonan-2-yl)oxy)-2-fluoro-N-(methylsulfonyl)benzamide] returned an IC50 of 9 nM.
Under `CS(=O)(=O)NC(=O)c1cc(C2CC2)c(OCC2CCN(Cc3cc(Cl)cc(C4CC4)n3)CC2)cc1F` [Example 49, 4-((1-((4-chloro-6-cyclopropylpyridin-2-yl)methyl)piperidin-4-yl)methoxy)-5-cyclopropyl-2-fluoro-N-(methylsulfonyl)benzamide] stands 11 nM; under `CC(c1cc(C(F)(F)F)cc(C2CC2)n1)N1CCC(COc2cc(F)c(C(=O)NS(C)(=O)=O)cc2C2CC2)CC1` (centres unmarked) [Example 50, 5-cyclopropyl-4-((1-(1-(6-cyclopropyl-4-(trifluoromethyl)pyridin-2-yl)ethyl)piperidin-4-yl)methoxy)-2-fluoro-N-(methylsulfonyl)benzamide], 9.1 nM; under `CC(c1cc(C(F)(F)F)cc(C2CC2)n1)N1CCC(COc2cc(F)c(C(=O)NS(=O)(=O)C3CC3)cc2C2CC2)CC1` (centres unmarked) [Example 51, 5-cyclopropyl-4-((1-(1-(6-cyclopropyl-4-(trifluoromethyl)pyridin-2-yl)ethyl)piperidin-4-yl)methoxy)-N-(cyclopropylsulfonyl)-2-fluorobenzamide], 11 nM.
As for `C[C@@H]1[C@H](Oc2cc(F)c(C(=O)NS(C)(=O)=O)cc2C2CC2)CCCN1Cc1cc(Cl)cc(Cl)c1` [Example 52, 5-cyclopropyl-4-(((2R,3R)-1-(3,5-dichlorobenzyl)-2-methylpiperidin-3-yl)oxy)-2-fluoro-N-(methylsulfonyl)benzamide], the IC50 was determined as 2.4 nM.
In turn, `CS(=O)(=O)NC(=O)c1cc(C2CC2)c(OCC2CCN(Cc3cc(Cl)cc(C(F)(F)F)n3)CC2)cc1F` [Example 53, 4-((1-((4-chloro-6-(trifluoromethyl)pyridin-2-yl)methyl)piperidin-4-yl)methoxy)-5-cyclopropyl-2-fluoro-N-(methylsulfonyl)benzamide] came in with an IC50 of 9.4 nM.
Take `O=C(NS(=O)(=O)C1CC1)c1cc(C2CC2)c(OCC2CCN(Cc3cc(Cl)cc(C(F)(F)F)n3)CC2)cc1F` [Example 54]: the IC50 is 4.2 nM.
The same measure for `CC(C)Oc1ncc(CN2CCC(F)(COc3cc(F)c(C(=O)NS(C)(=O)=O)cc3C3CC3)CC2)cc1Cl` [Example 55, 4-((1-((5-chloro-6-isopropoxypyridin-3-yl)methyl)-4-fluoropiperidin-4-yl)methoxy)-5-cyclopropyl-2-fluoro-N-(methylsulfonyl)benzamide]: 5.6 nM.
`CC(C)Oc1ncc(CN2CCC(F)(COc3cc(F)c(C(=O)NS(=O)(=O)C4CC4)cc3C3CC3)CC2)cc1Cl` [Example 56, 4-((1-((5-chloro-6-isopropoxypyridin-3-yl)methyl)-4-fluoropiperidin-4-yl)methoxy)-5-cyclopropyl-N-(cyclopropylsulfonyl)-2-fluorobenzamide] registered a 50% inhibitory concentration (IC50) of 6.8 nM.
